Measured values from patent publication US20240018132A1, “5-HYDROXY-1,4-NAPHTHALENEDIONE FOR USE IN THE TREATMENT OF CANCER” (GODAVARI BIOREFINERIES LIMITED, priority 2020, published 2024).

Columns and labels:
MDAMB231 [1] = assay: In vitro antiproliferative assay (MTT assay), breast cancer cell line; format: cell-based; conditions: Homo sapiens
Procedure: (§1) MTT assay is a simple and sensitive assay where, metabolic reducing activity of the cells is measured. The increase of this activity in time is taken as a parameter of cell growth. If treatment with a drug impairs this increase, the action is a consequence of growth inhibition, cell killing or both. […] All cell lines were cultured in a 37° C. incubator with a 5% CO2 environment. Compounds were dissolved in DMSO with a concentration of 0.1M (stock solution). Cells were seeded into 96-well plates at suitable plating efficiency.
(§2) Following plating efficiencies were standardized for MTT assay:
(§3) In the MTT procedure, the cells were plated in 96 well plates as per predetermined plating efficiency (Table1). The plates were then incubated for 24 hrs in 5% CO2 atmosphere at 37° C. Appropriate concentrations of the drugs were then added to the plate and further incubation was carried out for 48 hrs (in 5% CO2 atmosphere at 37° C.). The assay plate was then centrifuged twice at 3000 rpm for 3 mins and supernatant was then discarded. 100 ul of MTT solution (0.5 mg/ml) was then added to each well of the plate and it was further incubated for 4 hrs (in 5% CO2 atmosphere at 37° C.) Following 4 hr incubation, the plate was then centrifuged twice, and supernatant was aspirated off very carefully. 200 ul of DMSO was then added to each well to solubilize. MTT crystals and mixed well by shaking the plate. XY graph of log percent viability was then plotted against log drug concentration.

PC3 [2] = assay: In vitro antiproliferative assay (MTT assay), prostate cancer cell line; format: cell-based; conditions: Homo sapiens
Procedure: as §1, §2, §3

MDAMB231 [3] = assay: In vitro sphere-forming assay (cancer stem cells), Mammosphere media; conditions: for 3D sphere count of MDAMB231: Mammosphere media, 2000 cells/well, n = 6 ± S.D
Procedure: In Vitro Sphere-forming Assay: Sphere assay measures the ability of cancer stem cells (CSCs) to form spheres in specially designed serum-free medium.
Mammosphere Media Preparation (For 100 mL): 1 g methyl cellulose autoclaved with magnetic stirrer, 100 ml plain media (MEBM) was added and dissolved under magnetic stirring. After complete dissolution FGF-80 μL, EGF-40 μL, Penstrep-1 mL, Heparin-400 μL was added.
Procedure—The cells were trypsinised and made into single-cell suspension by passing through cell strainers (100 μl and 40 μl, respectively), The cells were diluted at a concentration of 2000 cells/100 μL and suspended in either Mammosphere (for breast cell lines) or Prostosphere (for prostate cell lines). 100 μL of this suspension was added into each well of 96-well suspension plates and incubated at 37° C., 5% CO2 for 24 hrs. Appropriate concentrations of the drugs (2 μL) were added into respective wells with 100 μL of stem cell culture medium. Plates were incubated at 37° C., 50 CO2 for 72 hrs. After incubation, 2.5 μL of the respective drug concentration and 50 μL of stem cell culture medium were added into each well and the plates were further incubated at 37° C., 50% CO2 for 72 hrs. 3 μL of the respective drug concentration was added with 50 μL of stem cell culture medium again after incubation and plates were reincubated for 72 hrs at 37° C., 50 CO2. Number of primary spheres formed for each concentration were counted. The spheres were converted to 0 viability of spheres compared to untreated (Growth Control with DMSO, GCD).

PC3 [4] = assay: In vitro sphere-forming assay (cancer stem cells), Prostosphere media; conditions: for 3D sphere count of PC3: Prostosphere media, 2000 cells/well, n = 6 ± S.D
[5] = MDA-MB-231, 48 h, MTT assay, breast cancer MDAMB231, 48 hrs drug incubation
[6] = PC-3, 48 h, MTT assay, prostate cancer PC3, 48 hrs drug incubation
[7] = Homo sapiens, MDA-MB-231, read-out: % Viability of spheres (MDAMB231)
[8] = Homo sapiens, PC-3, read-out: % Viability of spheres (PC3)
[9] = MDA-MB-231, MTT assay, MDAMB231

SMILES | IC50 (MDAMB231 [1]; [5]) | IC50 (PC3 [2]; [6]) | viability at 0.0025 µM (MDAMB231 [3]; [7]) | viability at 0.025 µM (MDAMB231 [3]; [7]) | viability at 0.25 µM (MDAMB231 [3]; [7]) | viability at 2.5 µM (MDAMB231 [3]; [7]) | viability at 25 µM (MDAMB231 [3]; [7]) | 3D sphere count of MDAMB231 (MDAMB231 [3]; drug 0.0025 uM) | 3D sphere count of MDAMB231 (MDAMB231 [3]; drug 0.025 uM) | 3D sphere count of MDAMB231 (MDAMB231 [3]; drug 0.25 uM) | 3D sphere count of MDAMB231 (MDAMB231 [3]; drug 2.5 uM) | 3D sphere count of MDAMB231 (MDAMB231 [3]; drug 25 uM) | viability at 0.025 µM (PC3 [4]; [8]) | viability at 0.25 µM (PC3 [4]; [8]) | viability at 2.5 µM (PC3 [4]; [8]) | viability at 25 µM (PC3 [4]; [8]) | 3D sphere count of PC3 (PC3 [4]; drug 0.025 uM) | 3D sphere count of PC3 (PC3 [4]; drug 0.25 uM) | 3D sphere count of PC3 (PC3 [4]; drug 2.5 uM) | 3D sphere count of PC3 (PC3 [4]; drug 25 uM) | also measured
O=C1C(Oc2ccc(F)cc2)=CC(=O)c2c(OCCN3CCOCC3)cccc21 [Formula 75, 5-(2-morpholinoethoxy)-2-(4-fluorophenoxy) naphthalene-1,4-dione] | 0.566 µM | 0.306 µM | 80% | 56% | 45% | 32% | 17% | 64(±3) | 45(±3) | 36(±4) | 26(±3) | 14(±3) | 57% | 47% | 33% | 20% | 46(±4) | 38(±3) | 27(±3) | 16(±2) | viability at 0.0025 µM (PC3 [4]; [8]): 82%; 3D sphere count of PC3 (PC3 [4]; drug 0.0025 uM): 66(±4)
O=C1C(Oc2ccc(F)cc2)=CC(=O)c2c(OCCCN3CCOCC3)cccc21 [Formula 78] | 5.5 µM | 3.46 µM | 87% | 67% | 57% | 46% | 35% | 79(±3) | 65(±5) | 52(±4) | 42(±4) | 32(±3) | 68% | 53% | 41% | 30% | 55(±3) | 43(±3) | 33(±3) | 24(±4) | viability at 0.0025 µM (PC3 [4]; [8]): 81%; 3D sphere count of PC3 (PC3 [4]; drug 0.0025 uM): 65(±4)
O=C1C(Oc2ccc(F)c(F)c2)=CC(=O)c2c(OCCN3CCOCC3)cccc21 [Formula 76] | 2.48 µM | 0.324 µM | 82% | 67% | 56% | 40% | 29% | 74(±3) | 61(±2) | 51(±3) | 36(±3) | 26(±4) | 72% | 55% | 38% | 28% | 58(±4) | 44(±4) | 31(±3) | 23(±3) | viability at 0.0025 µM (PC3 [4]; [8]): 86%; 3D sphere count of PC3 (PC3 [4]; drug 0.0025 uM): 69(±3)
COc1ccc(OC2=CC(=O)c3c(OCCCCN4CCOCC4)cccc3C2=O)cc1 [Formula 85] | – | – | – | – | – | – | – | – | – | – | – | – | – | – | – | – | – | – | – | – | IC50 (MDAMB231 [1]; [9]): 4.14 µM; IC50 (PC3 [2]; PC-3, MTT assay, PC3): 2.36 µM
O=C1C(c2ccc(F)cc2)=CC(=O)c2c(OCCN3CCOCC3)cccc21 [Formula 7, 5-(2-morpholinoethoxy)-2-(4-fluorophenyl) naphthalene-1,4-dione] | 0.451 µM | 0.246 µM | – | 83% | 60% | 43% | 31% | – | 59(±3) | 43(±3) | 31(±3) | 22(±3) | 71% | 50% | 35% | 21% | 57(±3) | 40(±3) | 28(±2) | 17(±3) | viability at 250 µM (MDAMB231 [3]; [7]): 15%; 3D sphere count of MDAMB231 (MDAMB231 [3]; drug 250 uM): 11(±3); viability at 250 µM (PC3 [4]; [8]): 11%; 3D sphere count of PC3 (PC3 [4]; drug 250 uM): 9(±2)
O=C1C(Oc2ccc(F)cc2F)=CC(=O)c2c(OCCN3CCOCC3)cccc21 [Formula 74] | 0.109 µM | 0.225 µM | 73% | 48% | 35% | 27% | 12% | 60(±3) | 39(±3) | 29(±3) | 22(±4) | 10(±2) | 56% | 41% | 27% | 17% | 45(±2) | 36(±4) | 24(±4) | 15(±3) | viability at 0.0025 µM (PC3 [4]; [8]): 73%; 3D sphere count of PC3 (PC3 [4]; drug 0.0025 uM): 64(±6)
O=C1C=C(Oc2ccc3c(c2)OCO3)C(=O)c2c(OCCN3CCOCC3)cccc21 [Formula 79, 8-(2-morpholinoethoxy)-2-(benzo[d][1,3]dioxol-6-yloxy)naphthalene-1,4-dione] | 0.502 µM | 0.527 µM | 76% | 56% | 39% | 26% | 19% | 69(±3) | 51(±3) | 35(±3) | 24(±3) | 17(±3) | 57% | 43% | 30% | 20% | 55(±3) | 43(±3) | 33(±3) | 24(±4) | viability at 0.0025 µM (PC3 [4]; [8]): 78%; 3D sphere count of PC3 (PC3 [4]; drug 0.0025 uM): 65(±4)
COc1ccc(OC2=CC(=O)c3c(OCCN4CCCCC4)cccc3C2=O)cc1 [Formula 84] | – | – | – | – | – | – | – | – | – | – | – | – | – | – | – | – | – | – | – | – | IC50 (MDAMB231 [1]; [9]): 0.562 µM; IC50 (PC3 [2]; PC-3, MTT assay, PC3): 0.492 µM
